Measured values taken from the NIST ThermoML archive (doi:10.1016/j.jct.2016.07.038).
± gives the expanded uncertainty stated by the source.

Assays:
[1] = molar heat capacity at constant pressure; conditions: 298.15 K; 101.33 kPa; Crystal; Small sample (50 mg) DSC
[2] = Molar enthalpy of transition or fusion; conditions: Crystal; DSC
[3] = Crystal; for Normal melting temperature: DTA

Row | molar heat capacity at constant pressure [1] | Molar enthalpy of transition or fusion [2] | Normal melting temperature [3] | mass density ([3]; 298.15 K, 101.33 kPa, measuring the mass and volume of a pellet of the compound) | Compound
1 | 113.8 ± 3.5 J/K/mol | 3.89 ± 0.139 kcal/mol | 90 ± 0.4 °C | – | O=C1NCCO1 [2-oxazolidone]
2 | 164.7 ± 3.5 J/K/mol | 3.67 ± 0.124 kcal/mol | 69.8 ± 0.6 °C | 1230 ± 60 kg/m3 | CC(=O)N1CCOC1=O [3-acetyl-2-oxazolidinone]
